Measured values from publication PMC4865917, “Positive Allosteric Modulation of the Glucagon-like Peptide-1 Receptor by Diverse Electrophiles” (The Journal of Biological Chemistry, 2016).
Where two headings read alike, the source gives them in different places.

Assays:
[1] = target: T1, human GLP-1R (Homo sapiens, UniProt P43220); assay: HTRF cAMP accumulation, HEK293 cells; assay type: cell-based
T1 construct: gene GLP1R; full-length receptor expressed in HEK293 cells; C347A mutant carries a 1xFLAG tag
T1 sequence (P43220 24-463): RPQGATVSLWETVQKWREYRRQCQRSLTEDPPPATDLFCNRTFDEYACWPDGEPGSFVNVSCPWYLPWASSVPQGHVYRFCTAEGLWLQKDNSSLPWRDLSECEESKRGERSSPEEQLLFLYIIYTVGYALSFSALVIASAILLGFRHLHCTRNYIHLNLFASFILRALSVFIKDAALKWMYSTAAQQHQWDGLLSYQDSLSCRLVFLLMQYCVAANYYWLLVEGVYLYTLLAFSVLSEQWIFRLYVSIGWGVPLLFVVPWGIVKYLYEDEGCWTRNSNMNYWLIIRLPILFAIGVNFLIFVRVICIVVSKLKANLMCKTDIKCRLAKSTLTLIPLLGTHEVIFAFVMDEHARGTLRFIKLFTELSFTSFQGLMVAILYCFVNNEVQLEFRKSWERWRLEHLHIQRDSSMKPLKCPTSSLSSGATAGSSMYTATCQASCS
Description: (§1) HTRF cAMP accumulation, HEK293 cells on human GLP-1R

[2] = target: T2, human GLP-1R (Homo sapiens, UniProt P43220, C347A); assay: HTRF cAMP accumulation, HEK293 cells; assay type: cell-based
T2 construct: gene GLP1R; full-length receptor expressed in HEK293 cells; C347A mutant carries a 1xFLAG tag
T2 sequence (P43220 24-463 C347A): as the sequence (P43220 24-463) above, with C324A counted along it
Description: as §1

[3] = target: T1, human GLP-1R; assay: anti-FLAG immunoprecipitation, PAGE fluorography; assay type: cell-based; details: 500 nM [3H]BETP, 2 h, 37 °C, GLP-1R-3xFLAG in HEK293; covalent; labelled compound
[4] = target: T3, human CatL (Homo sapiens, UniProt P07711); assay: fluorogenic Z-Phe-Arg-AMC hydrolysis; assay type: biochemical
T3 construct: gene CTSL; commercial cathepsin L (Calbiochem)
T3 sequence (P07711 114-288 limits assumed): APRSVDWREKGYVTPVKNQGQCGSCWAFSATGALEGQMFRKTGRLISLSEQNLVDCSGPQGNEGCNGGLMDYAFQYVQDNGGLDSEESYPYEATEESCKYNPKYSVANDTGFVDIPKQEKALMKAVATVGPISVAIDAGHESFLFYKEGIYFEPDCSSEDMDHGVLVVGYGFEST
T3 sequence (P07711 292-333 limits assumed): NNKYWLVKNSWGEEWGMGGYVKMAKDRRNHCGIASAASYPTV

[5] = read-out: Compound, EC50 WT (nM) (S.D., n)
[6] = read-out: EC50, C347A (nM) (S.D., n)
[7] = read-out: Compound, EC50, WT (nM) (S.D., n)
[8] = read-out: Compound, EC50, C347A (nM) (S.D., n)

| EC50 [1, 5] [nM] | EC50 [2, 6] [nM] | IC50 ([4]; read-out: CatL,^c IC50) [µM] | EC50 [2, 8] [nM] | Compound | further results |
| --- | --- | --- | --- | --- | --- |
| 1300 | > 30000 | > 33 |  | CC[S+]([O-])c1nc(-c2cccc(OCc3ccccc3)c2)cc(C(F)(F)F)n1 (centres unmarked) [BETP, 4-(3-benzyloxyphenyl)-2-ethylsulfinyl-6-(trifluoromethyl)pyrimidine] | anti-FLAG immunoprecipitation, PAGE fluorography [3]: The finding that [^3H]BETP irreversibly labels the GLP-1R |
|  |  |  |  | O=C(NCc1ccccc1)[C@H](Cc1ccccc1)NC(=O)[C@H]1O[C@@H]1C(=O)NCCc1ccc(O)cc1 [CAA0225, (2S,3S)-N2-[(1S)-1-benzyl-2-(benzylamino)-2-oxo-ethyl]-N3-[2-(4-hydroxyphenyl)ethyl]oxirane-2,3-dicarboxamide, reference compound] | IC50 ([4]; read-out: IC50): 0.006 µM |
| 860 | > 30000 |  |  | Cc1nnc(Sc2nc3cc(Cl)c(Cl)cc3nc2C(F)(F)F)s1 [compound 1] |  |
| 25 | > 30000 |  |  | CC(C)(C)Nc1nc2cc(Cl)c(Cl)cc2nc1S(C)(=O)=O [compound 2] |  |
| 4700 | > 30000 |  |  | FC(F)(F)c1nc2cc(Cl)c(Cl)cc2nc1Cl [compound 3] |  |
| 1500 | > 30000 |  |  | CC1(C)CC(=O)c2c(S(C)(=O)=O)sc(-c3nnc(-c4ccc(C(C)(C)C)cc4)o3)c2C1 [compound 5] |  |
| 1430 | > 30000 |  |  | CC1(C)CC(=O)c2c(S(C)(=O)=O)sc(C(=O)c3ccc(-c4ccccc4)cc3)c2C1 [compound 6] |  |
| > 30000 |  |  |  | FC(F)(F)c1nc2ccccc2nc1Sc1ccc(Cl)cc1 [compound 7] |  |
| > 30000 |  |  |  | O=C(Oc1cccc(-c2cn3cc(C(F)(F)F)cc(Cl)c3n2)c1)C1CCCCC1 [compound 8] |  |
| 1500 | 1400 |  |  | Cc1ccc(-c2cccc(C(=O)NC(Cc3ccc(-c4noc(-c5ccc(NC(=O)OC(C)(C)C)cc5)n4)c(F)c3)C(=O)O)c2)cc1 (centres unmarked) [compound 9] |  |
|  |  | > 33 | > 30000 | Clc1nc2c(-c3ccccc3)nnn2c2ccccc12 [compound 11] | EC50 [1, 7]: 7000 nM |
|  |  | > 33 | > 30000 | CS(=O)(=O)c1nc(-c2ccccc2)cc(-c2ccccc2)c1C#N [compound 12] | EC50 [1, 7]: 6000 nM |
|  |  | > 33 | > 30000 | CCOC(=O)c1ccc(N2Cc3ccccc3C(=Cc3ccc(Br)cc3)C2=N)cc1 [compound 13] | EC50 [1, 7]: 1000 nM |
|  |  | > 33 | > 30000 | Clc1nc2ccc3nsnc3c2nc1Cl [compound 14] |  |
|  |  | 25 | > 30000 | O=S(=O)(c1ccccc1)c1nc(-c2ccccc2)ns1 [compound 15] | EC50 [1, 7]: 1300 nM |
|  |  | 12 | > 30000 | CS(=NC(=O)Nc1ccc(Cl)cc1)c1sc(Cl)c2c1C(=O)CCC2 (centres unmarked) [compound 16] | EC50 [1, 7]: 5200 nM |
|  |  | 8 | > 30000 | O=[N+]([O-])c1ccc2nc(S(=O)(=O)c3ccc(Cl)cc3)sc2c1 [compound 17] |  |
|  |  |  | > 30000 | CC(=O)NC1=C(Cl)C(=O)c2ccccc2C1=O [compound 18] |  |
|  |  |  | > 30000 | O=C1C=CC(=O)N1c1cccc(C(F)(F)F)c1 [compound 19] |  |
| > 30000 |  |  |  | CCSc1nc(-c2cccc(OCc3ccccc3)c2)cc(C(F)(F)F)n1 [th-BETP, 4-(3-benzyloxyphenyl)-2-ethylsulfanyl-6-(trifluoromethyl)pyrimidine] |  |
